Like-named read-outs stand apart in the source and are kept apart here.
Tests used:
[1] = target: T1, c-Met kinase domain recombinant protein (Homo sapiens, UniProt P08581); experiment: biochemical; details: for inhibition at 0.1 µM: read-out: Average inhibition rate at 0.1 μM (%); for inhibition at 1 µM: read-out: Average inhibition rate at 1 μM (%); for inhibition at 10 µM: read-out: Average inhibition rate at 10 μM (%)
T1 construct: 50 μL diluted solution of c-Met kinase domain recombinant protein in reaction buffer was added to initiate the reaction
T1 sequence (P08581 1078-1345 limits assumed): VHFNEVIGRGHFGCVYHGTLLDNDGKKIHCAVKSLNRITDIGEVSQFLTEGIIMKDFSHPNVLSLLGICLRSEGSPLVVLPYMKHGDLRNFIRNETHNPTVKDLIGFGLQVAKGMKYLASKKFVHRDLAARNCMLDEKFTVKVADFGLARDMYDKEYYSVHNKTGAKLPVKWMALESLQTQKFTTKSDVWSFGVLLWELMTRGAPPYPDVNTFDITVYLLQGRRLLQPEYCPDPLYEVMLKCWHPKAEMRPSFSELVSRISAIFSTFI
Outline: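 ELISA on plates coated with Poly(Glu,Tyr)4:1 (20 μg/mL coating solution). Recombinant c-Met kinase domain reacted with 5 μM ATP in HEPES pH 7.4 with Mg/Mn, vanadate and DTT for 1 hour at 37° C. Phosphotyrosine was detected with PY99 and HRP secondary antibody, read at 490 nm, and IC50 was taken from a four-parameter fit.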

[2] = target: T1, c-Met kinase domain recombinant protein; experiment: biochemical; details: read-out: Inhibition rate at 10 μM (%)
Outline: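 ELISA on plates coated with Poly(Glu,Tyr)4:1 (20 μg/mL), kinase reaction with c-Met kinase domain and ATP in HEPES pH 7.4 buffer with MgCl2, MnCl2, Na3VO4 and DTT, 1 h at 37 °C. Phosphotyrosine detected with PY99 and HRP secondary antibody, read at 490 nm; inhibition rate calculated against ATP-free control.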

EBC-1 cell = experiment: Test III: growth inhibition of non-small cell carcinoma EBC-1 cell (SRB); type: cell-based; details: Homo sapiens, EBC-1, 72 h; for inhibition at 0.2 µM: read-out: Cell proliferation inhibition rate at 200 nM (%); for inhibition at 1 µM: read-out: Cell proliferation inhibition rate at 1 μM (%)
Method: Assays on the growth inhibition of the compounds against gastric tumor cell MKN45, non-small cell carcinoma EBC-1 cell (both are MET persistent activated cell lines due to MET gene amplification, and are Met dependent tumor cell lines, MKN45 cell was purchased from JCRB, Japan, EBC-1 cell was purchased from ATCC, USA) were detected using sulforhodamine B (SRB) staining. […] After incubation with compound for 72 hours, the incubation was terminated, adherent cells were retained and medium was discarded, 10% (w/v) trichloroacetic acid (100 μL pre well) was added, the cells were fixed at 4° C. for 1 hour, then rinsed with distilled water for 5 times, after dried at room temperature, SRB solution (4 mg/mL, dissolved in 1% glacial acetic acid) was added at 100 μL per well, incubated and stained at room temperature for 15 minutes, then rinsed with 1% glacial acetic acid for 5 times to remove any unbound SRB, dried at room temperature, then 10 mM Tris solution was added at 100 μL per well, the optical density (OD) value at 515 nm was measured using VERSMax microplate reader.
Experiments were conducted in duplicates. IC50 value was calculated by fitting the data for a four parameter fit using inhibition curve, the results are shown below in Table 2.

SMILES	inhibition at 0.1 µM [1]	inhibition at 1 µM [1]	inhibition at 10 µM [1]	inhibition at 10 µM [2]	IC50 [1]	inhibition at 0.2 µM (EBC-1 cell)	inhibition at 1 µM (EBC-1 cell)
Cn1cc(-c2cnc3cnn(S(=O)(=O)c4cnc5ccc(-c6cnn(C7CCNCC7)c6)cn45)c3c2)cn1 [Example 82, 1-{[6-([1-(4-piperidinyl)]-4-pyrazolyl)-imidazo[1,2-a]pyridine]-3-sulfonyl}-6-[(1-methyl)-4-pyrazolyl]-1-H-pyrazolo[4,3-b]pyridine chloride]	54.4%	63.8%	77.7%	> 78.5%			
Cn1cc(-c2cnc3cnn(S(=O)(=O)c4cnc5ccc(-c6cccc(C(F)(F)F)c6)cn45)c3c2)cn1 [Example 83, 1-{[6-(3-trifluoromethylphenyl)-imidazo[1,2-a]pyridine]-3-sulfonyl}-6-[(1-methyl)-4-pyrazolyl]-1-H-pyrazolo[4,3-b]pyridine]		44.4%	77.7%	> 79.8%			
Cn1cc(-c2cnc3cnn(S(=O)(=O)c4cnc5ccc(-c6ccccc6C(F)(F)F)cn45)c3c2)cn1 [Example 84, 1-{[6-(2-trifluoromethylphenyl)-imidazo[1,2-a]pyridine]-3-sulfonyl}-6-[(1-methyl)-4-pyrazolyl]-1-H-pyrazolo[4,3-b]pyridine]		41.2%	73.5%	> 71.5%			
CN(C)c1ccc(-c2ccc3ncc(S(=O)(=O)n4ncc5ncc(-c6cnn(C)c6)cc54)n3c2)cc1 [Example 85, 1-{[6-(4-dimethylaminophenyl)-imidazo[1,2-a]pyridine]-3-sulfonyl}-6-[(1-methyl)-4-pyrazolyl]-1-H-pyrazolo[4,3-b]pyridine]		30.1%	79.4%	> 71.2%			
Cn1cc(-c2cnc3cnn(S(=O)(=O)c4cnc5ccc(-c6ccc(F)cc6F)cn45)c3c2)cn1 [Example 87, 1-{[6-(2,4-difluorophenyl)-imidazo[1,2-a]pyridine]-3-sulfonyl}-6-[(1-methyl)-4-pyrazolyl]-1-H-pyrazolo[4,3-b]pyridine]	33.8%	72.7%	72.5%	> 76.8%			
Cn1cc(-c2cnc3cnn(S(=O)(=O)c4cnc5ccc(-c6cc(F)c(F)c(F)c6)cn45)c3c2)cn1 [Example 88, 1-{[6-(3,4,5-trifluorophenyl)-imidazo[1,2-a]pyridine]-3-sulfonyl}-6-[(1-methyl)-4-pyrazolyl]-1-H-pyrazolo[4,3-b]pyridine]	1.1%	59.4%	64.5%	> 70.2%			
Cn1cc(-c2cnc3cnn(S(=O)(=O)c4cnc5ccc(-c6ccc7c(c6)OCCO7)cn45)c3c2)cn1 [Example 93, 1-{[6-[6-(1,4-benzodioxanyl)]-imidazo[1,2-a]pyridine]-3-sulfonyl}-6-[(1-methyl)-4-pyrazolyl]-1-H-pyrazolo[4,3-b]pyridine]	76.1%	76.8%	77.9%	> 64.5%			
COc1ccc(-c2ccc3ncc(S(=O)(=O)n4ncc5ncc(-c6cnn(C)c6)cc54)n3c2)cc1OC [Example 96, 1-{[6-(3,4-dimethoxyphenyl)-imidazo[1,2-a]pyridine]-3-sulfonyl}-6-[(1-methyl)-4-pyrazolyl]-1-H-pyrazolo[4,3-b]pyridine]	56.6%	61.5%	68.3%	> 71.8%	0.7 ± 0.1 nM		
Cn1cc(-c2cnc3cnn(S(=O)(=O)c4cnc5ccc(-c6ccc7c(c6)OCO7)cn45)c3c2)cn1 [Example 98, 1-{[6-[5-(1,2-methylenedioxyphenyl)]-imidazo[1,2-a]pyridine]-3-sulfonyl}-6-[(1-methyl)-4-pyrazolyl]-1-H-pyrazolo[4,3-b]pyridine]	50.6%	66.8%	74.3%	> 77.9%	1.4 ± 0.1 nM		
CNC(=O)c1ccc(-c2ccc3ncc(S(=O)(=O)n4ncc5ncc(-c6cnn(C)c6)cc54)n3c2)cc1F [Example 101, 1-{(6-(3-fluoro-4-methylaminocarbonylphenyl)-imidazo[1,2-a]pyridine)-3-sulfonyl}-6-[(1-methyl)-4-pyrazolyl]-1-H-pyrazolo[4,3-b]pyridine]	100%	100%		> 64.5%	0.3 ± 0.1 nM		
CC(C)c1c(-c2cnn(C)c2)cnc2cnn(S(=O)(=O)c3cnc4ccc(-c5cnn(C)c5)cn34)c12 [Example 103, 1-{(6-[(1-methyl)-4-pyrazolyl]-imidazo[1,2-a]pyridine)-3-sulfonyl}-6-[(1-methyl)-4-pyrazolyl]-7-isopropyl-1-H-pyrazolo[4,3-b]pyridine]	98.5%	101%			3.2 ± 0.3 nM	80.9%	92.7%

Continued, in another order:

inhibition at 0.1 µM [1]	inhibition at 1 µM [1]	inhibition at 10 µM [1]	inhibition at 10 µM [2]	IC50 [1]	SMILES	inhibition at 0.2 µM (EBC-1 cell)	inhibition at 1 µM (EBC-1 cell)
45%	66.6%	77.8%	> 67.9%		Cn1cc(-c2cnc3cnn(S(=O)(=O)c4cnc5ccc(-c6cccc(F)c6)cn45)c3c2)cn1 [Example 86, 1-{[6-(3-fluorophenyl)-imidazo[1,2-a]pyridine]-3-sulfonyl}-6-[(1-methyl)-4-pyrazolyl]-1-H-pyrazolo[4,3-b]pyridine]		
45.3%	79.9%	83.4%	> 71.7%		COc1ccc(-c2ccc3ncc(S(=O)(=O)n4ncc5ncc(-c6cnn(C)c6)cc54)n3c2)cc1 [Example 89, 1-{[6-(4-methoxyphenyl)-imidazo[1,2-a]pyridine]-3-sulfonyl}-6-[(1-methyl)-4-pyrazolyl]-1-H-pyrazolo[4,3-b]pyridine]		
82.8%	79.1%	78.9%	> 71.9%		Cn1cc(-c2cnc3cnn(S(=O)(=O)c4cnc5ccc(-c6ccc(C#N)cc6)cn45)c3c2)cn1 [Example 92, 1-{[6-(4-cyanophenyl)-imidazo[1,2-a]pyridine]-3-sulfonyl}-6-[(1-methyl)-4-pyrazolyl]-1-H-pyrazolo[4,3-b]pyridine]		
72.1%	55.7%	83.9%	> 74.3%		Cn1cc(-c2cnc3cnn(S(=O)(=O)c4cnc5ccc(-c6ccc(Cl)cc6)cn45)c3c2)cn1 [Example 94, 1-{[6-(4-chlorophenyl)-imidazo[1,2-a]pyridine]-3-sulfonyl}-6-[(1-methyl)-4-pyrazolyl]-1-H-pyrazolo[4,3-b]pyridine]		
99.8%	100%			2.1 ± 0.6 nM	O=S(=O)(c1cnc2ccc(-c3cn[nH]c3)cn12)n1ncc2ncc(-c3cn[nH]c3)cc21 [Example 104, 1-{[6-(4-pyrazolyl)-imidazo[1,2-a]pyridine]-3-sulfonyl}-6-(4-pyrazolyl)-1-H-pyrazolo[4,3-b]pyridine]	85.7%	89.2%
97.8%	100%			2.6 ± 0.4 nM	Cn1cc(-c2cnc3cnn(S(=O)(=O)c4cnc5ccc(-c6cn[nH]c6)cn45)c3c2)cn1 [Example 105, 1-{[6-(4-pyrazolyl)-imidazo[1,2-a]pyridine]-3-sulfonyl}-6-[(1-methyl)-4-pyrazolyl]-1-H-pyrazolo[4,3-b]pyridine]	77.7%	91.5%
